Source: paper PMC4581874 (PLoS ONE, 2015)

Columns and labels:
ROCK-II (h) = target: T1, ROCK-II (h) (Homo sapiens, UniProt O75116); assay: Kinase profile, ROCK-II; format: biochemical; details: mean ± S.D.
T1 construct: purchased Millipore (now Eurofins) KinaseProfiler / IC50 Profiler
Method: (§1) All kinase assays were carried out using KinaseProfiler^TM and IC50 Profiler^TM (Millipore UK Ltd., Dundee, UK. Now Eurofins Scientific, Dundee, UK). All IC50 data were presented as the mean values. The Curves obtained to determine IC50 values were shown in Supporting Information (S1 Fig).

CDK5/p25 (h) = target: T2, CDK5/p25 (h) (Homo sapiens, UniProt Q00535); assay: Kinase profile, CDK5/p25; format: biochemical; details: mean ± S.D.
T2 construct: purchased Millipore (now Eurofins) KinaseProfiler / IC50 Profiler
Method: as §1

HUVECs [1] = assay: HUVEC viability assay (cytotoxicity); format: cell-based, human; details: 24 hours
Method: HCC827 cells were purchased from the American Type Culture Collection (ATCC, Manassas, VA, USA). Cells were grown in RPMI 1640 (Welgene Inc., Daegu, Republic of Korea) supplemented with 10% fetal bovine serum (FBS) (Welgene Inc.) and 1% penicillin-streptomycin (Gibco®, Life Technologies, Carlsbad, CA, USA) in a humidified 5% CO2 atmosphere at 37°C. Human umbilical vein endothelial cells (HUVECs, ScienCell Research Laboratories, Carlsbad, CA, USA) were cultured in endothelial growth medium-2 (EGM-2; Lonza, Walkersville, MD, USA) from passages 3 to 6.
For the HUVEC viability assay, HUVECs were treated with phosphate-buffered saline (PBS) or the indicated concentrations of VEGF inhibitors in EGM-2 medium for 24 hours. After the cells were washed with PBS, they were counted using an inverted light microscope (Nikon Eclipse Ti-U; Nikon Corp., Tokyo, Japan) in 5 random fields from each well.

MAPK2 (h) = target: T3, MAPK2 (h) (Homo sapiens, UniProt P28482); assay: Kinase profile, MAPK2; format: biochemical; details: mean ± S.D.
T3 construct: purchased Millipore (now Eurofins) KinaseProfiler / IC50 Profiler
Method: as §1

PKCβII (h) = target: T4, PKCβII (h) (Homo sapiens, UniProt P05771); assay: Kinase profile, PKCβII; format: biochemical; details: mean ± S.D.
T4 construct: purchased Millipore (now Eurofins) KinaseProfiler / IC50 Profiler
Method: as §1

PKG1β (h) = target: T5, PKG1β (h) (Homo sapiens, UniProt Q13976); assay: Kinase profile, PKG1β; format: biochemical; details: mean ± S.D.
T5 construct: purchased Millipore (now Eurofins) KinaseProfiler / IC50 Profiler
Method: as §1

CDK7/cyclin H/MAT1 (h) = target: T6, CDK7/cyclin H/MAT1 (h) (Homo sapiens, UniProt P50613); assay: Kinase profile, CDK7/cyclin H/MAT1; format: biochemical; details: mean ± S.D.
T6 construct: purchased Millipore (now Eurofins) KinaseProfiler / IC50 Profiler
Method: as §1

p70S6K (h) = target: T7, p70S6K (h) (Homo sapiens, UniProt P23443); assay: Kinase profile, p70S6K; format: biochemical; details: mean ± S.D.
T7 construct: purchased Millipore (now Eurofins) KinaseProfiler / IC50 Profiler
Method: as §1

HUVECs [2] = assay: VEGF-induced endothelial proliferation assay; format: cell-based, human; details: VEGF 50 ng/mL, compound 1 μg/mL
Method: For the cell proliferation assays, cells were incubated overnight in endothelial basal media (EBM; Lonza, Walkersville, MD, USA) containing 0.5% FBS or supplemented with VEGF-A and/or VEGF inhibitors. The cells were washed with PBS and counted in 4 random microscope fields. The tube formation assay was performed by seeding cells on Matrigel-coated plates (BD Bioscience, Bedford, MA, USA) and incubating in EBM containing 0.5% FBS or supplemented with VEGF-A and/or VEGF inhibitors. After overnight incubation, tubule networks were quantified by measuring the tubule length in 4 random microscope fields. For the analysis of scratch wound migration, confluent cell monolayers grown on 6-well plates were scratched using a micropipette tip. After the plates were washed with PBS to remove dislodged cells and media, they were incubated with EBM containing 0.5% FBS or supplemented with VEGF and/or VEGF inhibitors for 8 hours. Cell migration was observed by optical microscopy and quantified by measuring the number of cells that had migrated from the wound edges.

FGFR1 = target: T8, FGFR1 (Homo sapiens, UniProt P11362); assay: In vitro kinase assay, FGFR1; format: biochemical
T8 construct: purchased Millipore UK Ltd., Dundee, UK (now Eurofins Scientific); KinaseProfiler / IC50 Profiler service
Method: as §1

PKCε (h) = target: T9, PKCε (h) (Homo sapiens, UniProt Q02156); assay: Kinase profile, PKCε; format: biochemical; details: mean ± S.D.
T9 construct: purchased Millipore (now Eurofins) KinaseProfiler / IC50 Profiler
Method: as §1

PKCβI (h) = target: T10, PKCβI (h) (Homo sapiens, UniProt P05771); assay: Kinase profile, PKCβI; format: biochemical; details: mean ± S.D.
T10 construct: purchased Millipore (now Eurofins) KinaseProfiler / IC50 Profiler
Method: as §1

PKCζ (h) = target: T11, PKCζ (h) (Homo sapiens, UniProt Q05513); assay: Kinase profile, PKCζ; format: biochemical; details: mean ± S.D.
T11 construct: purchased Millipore (now Eurofins) KinaseProfiler / IC50 Profiler
Method: as §1

PDGFRβ = target: T12, PDGFRβ (Homo sapiens, UniProt P09619); assay: In vitro kinase assay, PDGFRβ; format: biochemical
T12 construct: purchased Millipore UK Ltd., Dundee, UK (now Eurofins Scientific); KinaseProfiler / IC50 Profiler service
Method: as §1

VEGFR-2 = target: T13, VEGFR-2 (Homo sapiens, UniProt P35968); assay: In vitro kinase assay, VEGFR-2; format: biochemical
T13 construct: purchased Millipore UK Ltd., Dundee, UK (now Eurofins Scientific); KinaseProfiler / IC50 Profiler service
Method: as §1

CDK2/cyclin A (h) = target: T14, CDK2/cyclin A (h) (Homo sapiens, UniProt P24941); assay: Kinase profile, CDK2/cyclin A; format: biochemical; details: mean ± S.D.
T14 construct: purchased Millipore (now Eurofins) KinaseProfiler / IC50 Profiler
Method: as §1

PKCι (h) = target: T15, PKCι (h) (Homo sapiens, UniProt P41743); assay: Kinase profile, PKCι; format: biochemical; details: mean ± S.D.
T15 construct: purchased Millipore (now Eurofins) KinaseProfiler / IC50 Profiler
Method: as §1

CaMKIIδ (h) = target: T16, CaMKIIδ (h) (Homo sapiens, UniProt Q13557); assay: Kinase profile, CaMKIIδ; format: biochemical; details: mean ± S.D.
T16 construct: purchased Millipore (now Eurofins) KinaseProfiler / IC50 Profiler
Method: as §1

PKCη (h) = target: T17, PKCη (h) (Homo sapiens, UniProt P24723); assay: Kinase profile, PKCη; format: biochemical; details: mean ± S.D.
T17 construct: purchased Millipore (now Eurofins) KinaseProfiler / IC50 Profiler
Method: as §1

LKB1 (h) = target: T18, LKB1 (h) (Homo sapiens, UniProt Q15831); assay: Kinase profile, LKB1; format: biochemical; details: mean ± S.D.
T18 construct: purchased Millipore (now Eurofins) KinaseProfiler / IC50 Profiler
Method: as §1

CaMKIV (h) = target: T19, CaMKIV (h) (Homo sapiens, UniProt Q16566); assay: Kinase profile, CaMKIV; format: biochemical; details: mean ± S.D.
T19 construct: purchased Millipore (now Eurofins) KinaseProfiler / IC50 Profiler
Method: as §1

T13 sequence (P35968 20-1356): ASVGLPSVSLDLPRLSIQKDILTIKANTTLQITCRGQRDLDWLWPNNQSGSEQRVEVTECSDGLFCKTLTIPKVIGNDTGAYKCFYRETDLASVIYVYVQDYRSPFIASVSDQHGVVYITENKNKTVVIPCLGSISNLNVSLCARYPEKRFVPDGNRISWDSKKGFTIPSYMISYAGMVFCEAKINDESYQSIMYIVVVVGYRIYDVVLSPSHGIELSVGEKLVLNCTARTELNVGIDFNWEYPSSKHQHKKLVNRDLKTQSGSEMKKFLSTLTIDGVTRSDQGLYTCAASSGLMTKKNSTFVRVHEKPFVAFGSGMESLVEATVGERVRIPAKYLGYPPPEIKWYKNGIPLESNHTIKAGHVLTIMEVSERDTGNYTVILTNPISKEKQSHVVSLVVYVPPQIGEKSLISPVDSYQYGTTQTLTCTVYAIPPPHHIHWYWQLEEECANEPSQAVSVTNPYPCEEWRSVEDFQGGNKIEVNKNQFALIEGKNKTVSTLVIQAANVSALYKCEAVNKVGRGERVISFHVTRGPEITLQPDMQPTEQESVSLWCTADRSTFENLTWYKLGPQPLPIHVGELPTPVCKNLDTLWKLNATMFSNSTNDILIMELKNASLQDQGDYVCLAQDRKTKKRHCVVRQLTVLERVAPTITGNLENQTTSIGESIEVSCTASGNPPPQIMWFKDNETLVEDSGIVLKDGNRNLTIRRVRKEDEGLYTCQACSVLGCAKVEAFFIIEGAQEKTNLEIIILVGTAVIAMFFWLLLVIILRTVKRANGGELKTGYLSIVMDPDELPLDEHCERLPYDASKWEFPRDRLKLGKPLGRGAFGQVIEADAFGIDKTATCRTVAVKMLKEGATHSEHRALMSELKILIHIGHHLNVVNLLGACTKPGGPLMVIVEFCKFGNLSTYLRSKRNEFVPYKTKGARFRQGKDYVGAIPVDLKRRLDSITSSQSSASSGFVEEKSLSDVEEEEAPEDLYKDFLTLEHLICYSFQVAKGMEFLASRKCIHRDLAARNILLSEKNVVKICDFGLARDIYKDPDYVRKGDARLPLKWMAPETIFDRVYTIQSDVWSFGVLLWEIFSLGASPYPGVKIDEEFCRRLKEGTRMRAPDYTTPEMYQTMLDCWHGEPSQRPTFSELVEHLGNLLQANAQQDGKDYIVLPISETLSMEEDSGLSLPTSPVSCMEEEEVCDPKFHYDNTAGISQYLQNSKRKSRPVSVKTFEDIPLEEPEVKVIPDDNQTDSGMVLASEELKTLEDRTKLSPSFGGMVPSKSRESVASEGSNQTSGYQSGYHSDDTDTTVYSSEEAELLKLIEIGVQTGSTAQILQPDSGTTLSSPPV
T12 sequence (P09619 33-1106): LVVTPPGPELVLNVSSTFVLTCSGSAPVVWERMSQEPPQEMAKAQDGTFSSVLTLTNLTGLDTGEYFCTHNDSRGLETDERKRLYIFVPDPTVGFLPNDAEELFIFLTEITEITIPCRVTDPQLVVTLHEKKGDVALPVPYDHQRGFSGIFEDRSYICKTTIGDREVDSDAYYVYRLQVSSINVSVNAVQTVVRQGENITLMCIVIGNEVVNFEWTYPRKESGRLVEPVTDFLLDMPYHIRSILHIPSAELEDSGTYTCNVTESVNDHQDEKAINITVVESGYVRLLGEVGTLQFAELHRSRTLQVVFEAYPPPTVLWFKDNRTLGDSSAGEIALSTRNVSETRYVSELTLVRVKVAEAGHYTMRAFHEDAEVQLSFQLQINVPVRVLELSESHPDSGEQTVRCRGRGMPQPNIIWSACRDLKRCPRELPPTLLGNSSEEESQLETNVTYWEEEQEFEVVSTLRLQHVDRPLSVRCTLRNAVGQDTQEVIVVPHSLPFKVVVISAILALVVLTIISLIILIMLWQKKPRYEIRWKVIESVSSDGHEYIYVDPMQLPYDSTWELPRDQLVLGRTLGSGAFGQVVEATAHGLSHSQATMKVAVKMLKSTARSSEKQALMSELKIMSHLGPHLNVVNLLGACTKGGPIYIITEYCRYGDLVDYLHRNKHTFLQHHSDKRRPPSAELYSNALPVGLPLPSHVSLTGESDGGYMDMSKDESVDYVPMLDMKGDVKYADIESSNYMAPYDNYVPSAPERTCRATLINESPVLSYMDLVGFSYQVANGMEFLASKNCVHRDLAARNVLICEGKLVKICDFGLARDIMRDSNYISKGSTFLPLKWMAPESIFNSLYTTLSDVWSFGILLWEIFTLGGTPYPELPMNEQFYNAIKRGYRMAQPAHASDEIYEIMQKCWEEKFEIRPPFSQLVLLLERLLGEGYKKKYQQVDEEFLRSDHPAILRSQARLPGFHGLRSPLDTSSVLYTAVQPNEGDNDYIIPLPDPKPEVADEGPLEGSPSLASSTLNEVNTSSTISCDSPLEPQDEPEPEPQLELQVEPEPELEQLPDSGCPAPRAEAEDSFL
T8 sequence (P11362 22-822): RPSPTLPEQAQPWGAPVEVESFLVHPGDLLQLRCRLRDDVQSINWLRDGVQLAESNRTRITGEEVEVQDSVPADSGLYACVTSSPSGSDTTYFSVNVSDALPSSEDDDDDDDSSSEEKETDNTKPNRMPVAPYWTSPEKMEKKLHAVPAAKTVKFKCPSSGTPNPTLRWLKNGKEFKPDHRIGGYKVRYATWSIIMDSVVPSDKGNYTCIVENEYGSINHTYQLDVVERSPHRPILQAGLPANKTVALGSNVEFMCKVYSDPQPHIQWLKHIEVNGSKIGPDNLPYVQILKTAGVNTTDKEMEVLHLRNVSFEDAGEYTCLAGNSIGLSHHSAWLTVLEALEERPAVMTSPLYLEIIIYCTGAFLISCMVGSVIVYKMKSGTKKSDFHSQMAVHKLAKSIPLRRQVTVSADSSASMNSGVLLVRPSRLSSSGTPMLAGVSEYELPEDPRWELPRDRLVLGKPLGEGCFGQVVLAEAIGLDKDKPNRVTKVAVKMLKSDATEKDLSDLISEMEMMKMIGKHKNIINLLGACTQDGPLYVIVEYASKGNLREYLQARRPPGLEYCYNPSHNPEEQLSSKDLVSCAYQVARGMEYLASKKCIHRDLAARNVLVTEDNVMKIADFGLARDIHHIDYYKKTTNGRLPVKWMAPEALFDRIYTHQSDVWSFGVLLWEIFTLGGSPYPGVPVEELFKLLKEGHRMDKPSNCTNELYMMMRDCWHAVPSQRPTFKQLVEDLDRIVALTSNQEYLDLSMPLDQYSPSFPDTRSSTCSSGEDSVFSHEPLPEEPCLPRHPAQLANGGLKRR
T11 sequence (Q05513 whole entry): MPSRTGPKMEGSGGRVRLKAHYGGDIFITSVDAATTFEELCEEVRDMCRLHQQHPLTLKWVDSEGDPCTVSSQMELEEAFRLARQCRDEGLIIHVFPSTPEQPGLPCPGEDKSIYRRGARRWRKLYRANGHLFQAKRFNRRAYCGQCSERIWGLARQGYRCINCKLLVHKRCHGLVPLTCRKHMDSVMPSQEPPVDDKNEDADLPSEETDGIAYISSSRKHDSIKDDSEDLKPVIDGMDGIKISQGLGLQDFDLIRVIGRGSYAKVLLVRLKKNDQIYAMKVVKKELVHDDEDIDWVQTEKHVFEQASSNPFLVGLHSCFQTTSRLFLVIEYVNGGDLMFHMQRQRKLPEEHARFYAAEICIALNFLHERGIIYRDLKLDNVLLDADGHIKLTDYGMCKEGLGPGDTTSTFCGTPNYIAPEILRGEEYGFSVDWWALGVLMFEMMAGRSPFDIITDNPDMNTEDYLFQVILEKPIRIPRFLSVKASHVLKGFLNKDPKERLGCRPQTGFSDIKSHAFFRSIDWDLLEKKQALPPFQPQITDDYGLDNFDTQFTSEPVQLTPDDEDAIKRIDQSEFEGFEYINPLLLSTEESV
T18 sequence (Q15831 whole entry): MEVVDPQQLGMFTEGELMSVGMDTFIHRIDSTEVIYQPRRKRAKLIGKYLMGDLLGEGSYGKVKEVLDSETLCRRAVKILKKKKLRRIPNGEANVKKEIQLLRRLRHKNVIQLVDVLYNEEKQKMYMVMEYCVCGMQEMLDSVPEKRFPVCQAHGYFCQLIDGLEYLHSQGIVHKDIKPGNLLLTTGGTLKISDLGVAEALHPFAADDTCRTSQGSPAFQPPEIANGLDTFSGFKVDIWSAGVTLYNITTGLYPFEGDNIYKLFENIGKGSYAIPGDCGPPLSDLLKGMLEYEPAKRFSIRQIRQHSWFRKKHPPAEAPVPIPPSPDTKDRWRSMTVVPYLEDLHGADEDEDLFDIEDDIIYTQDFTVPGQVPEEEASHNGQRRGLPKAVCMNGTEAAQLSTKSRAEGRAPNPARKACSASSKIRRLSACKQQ
T18 sequence (Q7RTN6 whole entry partner): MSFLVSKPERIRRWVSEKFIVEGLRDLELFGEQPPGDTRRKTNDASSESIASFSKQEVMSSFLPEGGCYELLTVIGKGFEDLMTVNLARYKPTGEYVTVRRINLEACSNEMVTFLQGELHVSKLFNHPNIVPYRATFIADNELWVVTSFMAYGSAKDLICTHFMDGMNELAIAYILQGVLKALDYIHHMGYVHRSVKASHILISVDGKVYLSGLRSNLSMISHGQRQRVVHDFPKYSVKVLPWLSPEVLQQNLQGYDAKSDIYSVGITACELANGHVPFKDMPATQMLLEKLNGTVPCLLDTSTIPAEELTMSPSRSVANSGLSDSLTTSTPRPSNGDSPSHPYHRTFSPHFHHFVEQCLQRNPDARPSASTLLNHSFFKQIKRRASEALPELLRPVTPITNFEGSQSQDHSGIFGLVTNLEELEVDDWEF
T18 sequence (Q9Y376 whole entry partner): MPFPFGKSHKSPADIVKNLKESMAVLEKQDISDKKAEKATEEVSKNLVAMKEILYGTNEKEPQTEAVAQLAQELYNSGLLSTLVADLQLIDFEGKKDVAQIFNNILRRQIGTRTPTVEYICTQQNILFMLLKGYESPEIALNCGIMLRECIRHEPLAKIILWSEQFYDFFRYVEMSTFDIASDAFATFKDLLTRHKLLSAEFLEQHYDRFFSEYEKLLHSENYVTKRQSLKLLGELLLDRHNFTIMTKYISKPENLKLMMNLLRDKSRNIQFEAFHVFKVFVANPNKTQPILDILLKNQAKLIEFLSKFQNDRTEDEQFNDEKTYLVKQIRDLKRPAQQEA

inhibition at 1 µM (ROCK-II (h)): 4 ± 1% | inhibition at 1 µM (CDK5/p25 (h)): 47 ± 2% | inhibition at 1 µM (MAPK2 (h)): 0% | inhibition at 1 µM (PKCβII (h)): 8 ± 3% | inhibition at 1 µM (PKG1β (h)): 7 ± 1% | inhibition at 1 µM (CDK7/cyclin H/MAT1 (h)): 16 ± 5% | inhibition at 1 µM (p70S6K (h)): 20 ± 3% | inhibition at 1 µM (FGFR1; 1 μM, mean ± S.D., read-out: % inhibition at 1 μM, FGFR1 (h)): 98 ± 1% | IC50 (FGFR1; in vitro kinase assay): 28 nM | inhibition at 1 µM (PKCε (h)): 2 ± 3% | inhibition at 1 µM (PKCβI (h)): 7 ± 5% | inhibition at 1 µM (PKCζ (h)): 5 ± 4% | inhibition at 1 µM (PDGFRβ; 1 μM, mean ± S.D., read-out: % inhibition at 1 μM, PDGFRβ (h)): 95 ± 1% | IC50 (PDGFRβ; in vitro kinase assay): 70 nM | inhibition at 1 µM (VEGFR-2; 1 μM, mean ± S.D., read-out: % inhibition at 1 μM, VEGFR-2 (h)): 94 ± 2% | IC50 (VEGFR-2; in vitro kinase assay): 32 nM | inhibition at 1 µM (CDK2/cyclin A (h)): 12 ± 8% | inhibition at 1 µM (PKCι (h)): 5 ± 6% | inhibition at 1 µM (CaMKIIδ (h)): 41 ± 3% | inhibition at 1 µM (PKCη (h)): 0% | inhibition at 1 µM (LKB1 (h)): 0% | inhibition at 1 µM (CaMKIV (h)): 0%
SMILES: Cc1ccc(Nc2nccc(N(C)c3ccc4[nH]ccc4c3)n2)cc1S(N)(=O)=O [MKP101]
Cytotoxicity in HUVECs (HUVECs [1]; 1 μg/mL): No cytotoxicity was observed | Cytotoxicity in HUVECs (HUVECs [1]; 5 and 10 μg/mL): significant endothelial cytotoxicity | Effect on VEGF-induced increase in endothelial proliferation (HUVECs [2]): significantly inhibited
